Species on record: Rattus norvegicus
Assay: DrugMatrix - Regimen: Daily Repeat
Assay type: toxicity, organism-based, Sprague-Dawley
Parameters: regimen Daily Repeat, gender Male, age 6-8 weeks
Settings: in vivo, po, route oral GAVAGE, vehicle .5 % CMC; for ABSOLUTE BASOPHIL / ABSOLUTE EOSINOPHIL / ABSOLUTE LYMPHOCYTE / ABSOLUTE MONOCYTE / ABSOLUTE SEGMENTED NEUTROPHIL / BASOPHIL / EOSINOPHIL / ERYTHROCYTE COUNT / HEMATOCRIT / HEMOGLOBIN / LEUKOCYTE COUNT / LYMPHOCYTE / MEAN CORPUSCULAR HEMOGLOBIN / MEAN CORPUSCULAR HEMOGLOBIN CONCENTRATION / MEAN CORPUSCULAR VOLUME / MONOCYTE / NEUTROPHIL / NUCLEATED RED BLOOD CELLS / PLATELET COUNT: tissue Blood; for ALANINE AMINOTRANSFERASE / ALBUMIN / ALKALINE PHOSPHATASE / ASPARTATE AMINOTRANSFERASE / BLOOD UREA NITROGEN / CARBON DIOXIDE / CHLORIDE / CHOLESTEROL / CREATINE PHOSPHOKINASE / CREATININE / GLUCOSE / LACTATE DEHYDROGENASE / LIPASE / PHOSPHORUS / POTASSIUM / SODIUM / TOTAL BILIRUBIN / TOTAL PROTEIN / URIC ACID: tissue Plasma
[1] = 1 mg/kg, 72 h, dose level Low, time 3 day
[2] = 1 mg/kg, 120 h, dose level Low, time 5 day
[3] = 68 mg/kg, 72 h, dose level High, time 3 day
[4] = 68 mg/kg, 120 h, dose level High, time 5 day

C[C@]12C=CC(=O)C=C1CC[C@@H]1[C@@H]2C(=O)C[C@@]2(C)[C@H]1CC[C@]2(O)C(=O)CO [PREDNISONE]
ABSOLUTE BASOPHIL [1]: 0 CELLS/uL
ABSOLUTE EOSINOPHIL [1]: 0 CELLS/uL
ABSOLUTE LYMPHOCYTE [1]: 13566 CELLS/uL
ABSOLUTE MONOCYTE [1]: 151.33 CELLS/uL
ABSOLUTE SEGMENTED NEUTROPHIL [1]: 1516 CELLS/uL
BASOPHIL [1]: 0%
EOSINOPHIL [1]: 0%
ERYTHROCYTE COUNT [1]: 5.56 x10E6/uL
HEMATOCRIT [1]: 34.8%
HEMOGLOBIN [1]: 13.33 G/DL
LEUKOCYTE COUNT [1]: 15.23 x10E3/uL
LYMPHOCYTE [1]: 89%
MEAN CORPUSCULAR HEMOGLOBIN [1]: 24 pg
MEAN CORPUSCULAR HEMOGLOBIN CONCENTRATION [1]: 38.33 G/DL
MEAN CORPUSCULAR VOLUME [1]: 62.6 fL
MONOCYTE [1]: 1%
NEUTROPHIL [1]: 10%
NUCLEATED RED BLOOD CELLS [1]: 0.33 /100WBC
PLATELET COUNT [1]: 1291 x10E3/uL
ALANINE AMINOTRANSFERASE [1]: 51.67 u/L
ALBUMIN [1]: 4.43 G/DL
ALKALINE PHOSPHATASE [1]: 455.67 u/L
ASPARTATE AMINOTRANSFERASE [1]: 87.33 u/L
BLOOD UREA NITROGEN [1]: 16 mg/dL
CARBON DIOXIDE [1]: 24 mmol/L
CHLORIDE [1]: 107.33 MEQ/L
CHOLESTEROL [1]: 68.67 mg/dL
CREATINE PHOSPHOKINASE [1]: 294.67 u/L
CREATININE [1]: 0.23 mg/dL
GLUCOSE [1]: 153.33 mg/dL
LACTATE DEHYDROGENASE [1]: 398.67 u/L
LIPASE [1]: 10.67 u/L
PHOSPHORUS [1]: 13.37 mg/dL
POTASSIUM [1]: 7 MEQ/L
SODIUM [1]: 149 MEQ/L
TOTAL BILIRUBIN [1]: 0.27 mg/dL
TOTAL PROTEIN [1]: 6.23 G/DL
URIC ACID [1]: 1.53 mg/dL
ABSOLUTE BASOPHIL [2]: 0 CELLS/uL
ABSOLUTE EOSINOPHIL [2]: 43 CELLS/uL
ABSOLUTE LYMPHOCYTE [2]: 10491.67 CELLS/uL
ABSOLUTE MONOCYTE [2]: 227.33 CELLS/uL
ABSOLUTE SEGMENTED NEUTROPHIL [2]: 1004.67 CELLS/uL
BASOPHIL [2]: 0%
EOSINOPHIL [2]: 0.33%
ERYTHROCYTE COUNT [2]: 6.03 x10E6/uL
HEMATOCRIT [2]: 38.43%
HEMOGLOBIN [2]: 14.23 G/DL
LEUKOCYTE COUNT [2]: 11.77 x10E3/uL
LYMPHOCYTE [2]: 89%
MEAN CORPUSCULAR HEMOGLOBIN [2]: 23.67 pg
MEAN CORPUSCULAR HEMOGLOBIN CONCENTRATION [2]: 37.03 G/DL
MEAN CORPUSCULAR VOLUME [2]: 63.87 fL
MONOCYTE [2]: 2%
NEUTROPHIL [2]: 8.67%
NUCLEATED RED BLOOD CELLS [2]: 0 /100WBC
PLATELET COUNT [2]: 1197.33 x10E3/uL
ALANINE AMINOTRANSFERASE [2]: 65 u/L
ALBUMIN [2]: 4.63 G/DL
ALKALINE PHOSPHATASE [2]: 455 u/L
ASPARTATE AMINOTRANSFERASE [2]: 98.67 u/L
BLOOD UREA NITROGEN [2]: 16.33 mg/dL
CARBON DIOXIDE [2]: 24 mmol/L
CHLORIDE [2]: 104.67 MEQ/L
CHOLESTEROL [2]: 69.33 mg/dL
CREATINE PHOSPHOKINASE [2]: 336 u/L
CREATININE [2]: 0.19 mg/dL
GLUCOSE [2]: 168.67 mg/dL
LACTATE DEHYDROGENASE [2]: 329 u/L
LIPASE [2]: 10.33 u/L
PHOSPHORUS [2]: 15.57 mg/dL
POTASSIUM [2]: 7.49 MEQ/L
SODIUM [2]: 147.77 MEQ/L
TOTAL BILIRUBIN [2]: 0.17 mg/dL
TOTAL PROTEIN [2]: 6.6 G/DL
URIC ACID [2]: 2.67 mg/dL
ABSOLUTE BASOPHIL [3]: 0 CELLS/uL
ABSOLUTE EOSINOPHIL [3]: 35 CELLS/uL
ABSOLUTE LYMPHOCYTE [3]: 7367 CELLS/uL
ABSOLUTE MONOCYTE [3]: 79.33 CELLS/uL
ABSOLUTE SEGMENTED NEUTROPHIL [3]: 1085.33 CELLS/uL
BASOPHIL [3]: 0%
EOSINOPHIL [3]: 0.33%
ERYTHROCYTE COUNT [3]: 5.88 x10E6/uL
HEMATOCRIT [3]: 37.6%
HEMOGLOBIN [3]: 13.93 G/DL
LEUKOCYTE COUNT [3]: 8.57 x10E3/uL
LYMPHOCYTE [3]: 86%
MEAN CORPUSCULAR HEMOGLOBIN [3]: 23.7 pg
MEAN CORPUSCULAR HEMOGLOBIN CONCENTRATION [3]: 37.07 G/DL
MEAN CORPUSCULAR VOLUME [3]: 64 fL
MONOCYTE [3]: 1%
NEUTROPHIL [3]: 12.67%
NUCLEATED RED BLOOD CELLS [3]: 0.33 /100WBC
PLATELET COUNT [3]: 1265.33 x10E3/uL
ALANINE AMINOTRANSFERASE [3]: 45.33 u/L
ALBUMIN [3]: 4.9 G/DL
ALKALINE PHOSPHATASE [3]: 446 u/L
ASPARTATE AMINOTRANSFERASE [3]: 84 u/L
BLOOD UREA NITROGEN [3]: 18.33 mg/dL
CARBON DIOXIDE [3]: 17 mmol/L
CHLORIDE [3]: 102 MEQ/L
CHOLESTEROL [3]: 71.33 mg/dL
CREATINE PHOSPHOKINASE [3]: 290.67 u/L
CREATININE [3]: 0.2 mg/dL
GLUCOSE [3]: 148 mg/dL
LACTATE DEHYDROGENASE [3]: 411.33 u/L
LIPASE [3]: 11.33 u/L
PHOSPHORUS [3]: 13.93 mg/dL
POTASSIUM [3]: 7.66 MEQ/L
SODIUM [3]: 147.03 MEQ/L
TOTAL BILIRUBIN [3]: 0.27 mg/dL
TOTAL PROTEIN [3]: 6.87 G/DL
URIC ACID [3]: 2.23 mg/dL
ABSOLUTE BASOPHIL [4]: 0 CELLS/uL
ABSOLUTE EOSINOPHIL [4]: 26.33 CELLS/uL
ABSOLUTE LYMPHOCYTE [4]: 7838.33 CELLS/uL
ABSOLUTE MONOCYTE [4]: 52.67 CELLS/uL
ABSOLUTE SEGMENTED NEUTROPHIL [4]: 1616 CELLS/uL
BASOPHIL [4]: 0%
EOSINOPHIL [4]: 0.33%
ERYTHROCYTE COUNT [4]: 6.38 x10E6/uL
HEMATOCRIT [4]: 39.03%
HEMOGLOBIN [4]: 14.3 G/DL
LEUKOCYTE COUNT [4]: 9.53 x10E3/uL
LYMPHOCYTE [4]: 81.33%
MEAN CORPUSCULAR HEMOGLOBIN [4]: 22.43 pg
MEAN CORPUSCULAR HEMOGLOBIN CONCENTRATION [4]: 36.63 G/DL
MEAN CORPUSCULAR VOLUME [4]: 61.17 fL
MONOCYTE [4]: 0.67%
NEUTROPHIL [4]: 17.67%
NUCLEATED RED BLOOD CELLS [4]: 0 /100WBC
PLATELET COUNT [4]: 1351.33 x10E3/uL
ALANINE AMINOTRANSFERASE [4]: 47 u/L
ALBUMIN [4]: 4.67 G/DL
ALKALINE PHOSPHATASE [4]: 399 u/L
ASPARTATE AMINOTRANSFERASE [4]: 95.33 u/L
BLOOD UREA NITROGEN [4]: 19 mg/dL
CARBON DIOXIDE [4]: 30.67 mmol/L
CHLORIDE [4]: 103.33 MEQ/L
CHOLESTEROL [4]: 49 mg/dL
CREATINE PHOSPHOKINASE [4]: 935.33 u/L
CREATININE [4]: 0.2 mg/dL
GLUCOSE [4]: 169 mg/dL
LACTATE DEHYDROGENASE [4]: 578.33 u/L
LIPASE [4]: 12.33 u/L
PHOSPHORUS [4]: 13.23 mg/dL
POTASSIUM [4]: 6.47 MEQ/L
SODIUM [4]: 147.4 MEQ/L
TOTAL BILIRUBIN [4]: 0.27 mg/dL
TOTAL PROTEIN [4]: 6.8 G/DL
URIC ACID [4]: 1.87 mg/dL
